Results: PubChem BioAssay (NCI)
Values joined by “and” are separate entries in the source; they are usually repeats but may differ in a detail not shown here. Equal entries are not always repeated.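 Where inhibition never reached the appropriate level, the endpoint shown equals the highest concentration tested. Otherwise, values were interpolated linearly from a five-concentration, 48-hour dose response in 96-well plates. GI50 is the concentration that inhibits growth by half. TGI: total growth inhibition.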

Key:
Assay in all cases: DTP human tumour cell line panel, 48 h
[1] = test system: CAKI-1 renal
[2] = test system: HL-60(TB) leukemia
[3] = test system: HOP-62 NSCLC
[4] = test system: HT29 colon
[5] = test system: MDA-MB-231 breast
[6] = test system: MDA-N
[7] = test system: MOLT-4 leukemia
[8] = test system: PC-3 prostate
[9] = test system: SF-539 CNS
[10] = test system: SK-MEL-28 melanoma
[11] = test system: SK-MEL-5 melanoma
[12] = test system: UACC-257 melanoma

Compound | GI50 [1] | TGI [1] | GI50 [2] | TGI [2] | GI50 [3] | TGI [3] | TGI [4] [µM] | GI50 [5] | TGI [5] | TGI [6] [µM] | GI50 [7] | TGI [7] [µM] | GI50 [8] | TGI [8] | GI50 [9] | TGI [9] | GI50 [10] | TGI [10] [µM] | TGI [11] | TGI [12]
C=CCN1C(=O)/C(=C/c2ccc(OC)cc2)N=C1SC1OC(COC(C)=O)C(OC(C)=O)C(OC(C)=O)C1OC(C)=O (centres undefined) | 16 µM and > 100 µM | 33 µM and > 100 µM | 11.5 µM and 2.9 µM | > 94 µM and 15.4 µM | 17.5 µM and 90 µM | 40 µM and > 100 µM | 22.4 | 18.8 µM and 39.2 µM | 42.9 µM and > 100 µM | > 100 | 58.3 µM and 24.7 µM | > 100 | 16.9 µM and 52.6 µM | 37.1 µM and > 100 µM | 19.9 µM and 42.8 µM | 44.5 µM and > 100 µM | 24.6 µM and > 100 µM | > 100 | 45.2 µM and > 100 µM | 45.9 µM and > 100 µM
COc1ccc(C(c2cc(OC)c(OC)c(OC)c2)N2C(=O)CCC2C(=O)O)cc1 (centres undefined) |  | > 100 µM |  | > 100 µM |  | > 100 µM | > 100 |  | > 100 µM | 56.9 |  | > 100 |  | > 100 µM |  | 52 µM |  | > 100 | > 100 µM | > 100 µM
O=C1CC2(CCNCC2)C(=O)N1N1CCCCC1 |  | > 100 µM |  | > 100 µM |  | > 100 µM | > 100 |  | > 100 µM | > 100 |  | > 100 |  | > 100 µM |  | > 100 µM |  | > 100 | > 100 µM | > 100 µM
